Measurements reported in publication PMC5729429, “Gimatecan exerts potent antitumor activity against gastric cancer in vitro and in vivo via AKT and MAPK signaling pathways” (Journal of Translational Medicine, 2017).
Structures can show the parent of a compound that is named as a salt.

What was measured:
NCI-N87 cells = experiment: Cell viability assay (CCK-8), NCI-N87; assay type: cell-based; settings: Homo sapiens, Fig. 1a 48 h exposure, 0–1 µM, read-out: IC50 antiproliferative effect
Procedure: Human GC cell lines SNU-1, HGC27 and MGC803 were purchased from Peking Union Medical College, and the NCI-N87 cell line was a gift from You-yong Lv, Ph.D. (Peking University Cancer Hospital and Institute). Cells were cultured in RPMI 1640 medium and Dulbecco’s Modified Eagle Medium (Gibco-BRL, MD, USA), respectively, supplemented with 10% fetal bovine serum (Gibco-BRL), 100 U/ml penicillin (Gibco-BRL) and […] streptomycin (Gibco-BRL). Cells were incubated in a humidified incubator (37 °C) supplemented with 5% CO2.
SNU-1, HGC27, MGC803 and NCI-N87 cells (5000 cells/well) were seeded in 96-well plates and incubated overnight in complete medium, followed by exposure to gimatecan (0–1 µM) or irinotecan (0–1 µM) for 24, 48, or 72 h. Cell viability was measured using a Cell Counting Kit-8 (Dojindo, Kumamoto, Japan) according to the manufacturer’s instructions. Absorbance at 450 nm was measured using a microplate spectrophotometer. All experiments were repeated at least three times.

[1] = tested on: GC patient-derived xenografts (PDX); experiment: Tumor growth inhibition in GC patient-derived xenograft (PDX) models; assay type: in vivo, NOD/SCID mice; settings: for TGIs (%): gimatecan 0.2 mg/kg daily oral gavage, irinotecan 20 mg/kg weekly i.p., 3 weeks; for antitumor activity compared with control groups: all five xenografts
Procedure: Establishment and serial passaging of GC patient-derived xenografts (PDX) models were as previously described. All procedures were performed under sterile conditions at an SPF facility and carried out in accordance with the guide for the Care and Use of Laboratory Animals of the National Institutes of Health. Animal experiments were approved by an independent ethics committee of Peking University Cancer Hospital.
Five PDX tissues were subcutaneously inoculated into the flanks of 6-week-old female non-obese diabetic/severe combined immunodeficiency (NOD/SCID) mice. When tumors reached 150–250 mm^3, mice were randomized to three groups (N = 5/group) with similar tumor volumes: (1) control group (physiological saline 100 µl daily, by orally gavage), (2) gimatecan group (gimatecan 0.2 mg/kg daily, by orally gavage) and (3) irinotecan group (irinotecan 20 mg/kg via weekly intraperitoneal injection). All animals were treated for 3 weeks. Tumor size and body weight were measured twice a week, and tumor volume was calculated using the following formula: V = (L × W^2)/2 (V, volume; L, length; W, width). Tumor growth inhibition (TGI) was calculated using the following formula: TGI = 1 − ΔT/ΔC × 100% (ΔT = tumor volume changes of the drug treated group, ΔC = tumor volume changes of the control group on the final day of the study).
A PDX model was established by subcutaneously transplanting tumor tissues of a patient into NOD/SCID mice and PDX 1–5 indicated PDX models from 5 different GC patients. PDX tissues were subcutaneously inoculated into mice, and when the tumor size reached 150–250 mm^3, mice (n = 5 in each group) were treated with buffer control or inhibitors. Tumor volumes were presented as mean ± SD. The antitumor activity is depicted by tumor growth inhibition (TGI). […] (ΔT = tumor volume change of the drug-treated group, ΔC = tumor volume change of the control group on the final day of the study). *p < 0.05, **p < 0.01, ***p < 0.001. b Immunohistochemical staining for Ki-67 of xenografts on day 22 of treatment from four PDX models. The ki-67 index, marker of cell proliferation, was calculated as the proportion of positive tumor cell nuclei in all tumor cells examined and labeled in red in the images. Scale bar represents 100 µm TEXT PRINTED IN THE PICTURE: (b) Vehicle: PDX 2: 100%; PDX 3: 70%; PDX 4: 70%; PDX 5: 40% | (b) Irinotecan: PDX 2: 60%; PDX 3: 70%; PDX 4: 60%; PDX 5: 50% | (b) Gimatecan: PDX 2: 60%; PDX 3: 10%; PDX 4: 40%; PDX 5: 10% DOUBTS OF THE COPYIST ABOUT THIS PICTURE: Vehicle, PDX 3: 70% or 20% (blurred red print on the image) / Vehicle, PDX 4: 70% or 20% / Vehicle, PDX 5: 40%, first digit blurred / Irinotecan, PDX 2: 60% or 80% or 50% / Irinotecan, PDX 3: 70% or 20% / Irinotecan, PDX 4: 60% or 50% or 80% / Irinotecan, PDX 5: 50% or 60% or 30% / Gimatecan, PDX 2: 60% or 50% or 80% / Gimatecan, PDX 4: 40%, first digit blurred / The measure of the percentages in panel b is not printed in the picture

Structure (SMILES) | IC50 (NCI-N87 cells) [nM] | TGIs (%) ([1]; PDX model 1) | TGIs (%) ([1]; PDX model 2) | TGIs (%) ([1]; PDX model 3) | TGIs (%) ([1]; PDX model 4) | TGIs (%) ([1]; PDX model 5) | antitumor activity compared with control groups [1]
CC[C@@]1(O)C(=O)OCc2c1cc1n(c2=O)Cc2c-1nc1ccccc1c2/C=N/OC(C)(C)C [Gimatecan, 7-t-butoxyiminomethylcamptothecin] | 88.2 | 110.1 | 106.6 | 84.4 | 91.7 | 108.7 | significant antitumor activity
CCc1c2c(nc3ccc(OC(=O)N4CCC(N5CCCCC5)CC4)cc13)-c1cc3c(c(=O)n1C2)COC(=O)[C@]3(O)CC [Irinotecan, irinotecan hydrochloride] | 142 | 75.4 | 76.1 | 24.1 | 15.1 | 40.6 | significant antitumor activity
